From ChEMBL document CHEMBL1124312, “Perfluoro-N-[4-(1H-tetrazol-5-ylmethyl)phenyl]alkanamides. A new class of oral antidiabetic agents” (J Med Chem, 1989) come the findings set out here.

Several values for one entry are separate records, joined by “and”; a condition that tells them apart may be missing. Equal entries are not always repeated.

Common to all, as to format: functional, organism-based
Experiment [1] relates to Mus musculus. Kind of experiment: Activity of perorally administered compound at a dose of 75 mg/kg for 4 days against plasma glucose in obese mice. Further details: dose 75 mg/kg.
The test system of experiment [2] is Mus musculus. Nature of the experiment: Activity of perorally administered compound at a dose of 75 mg/kg for 4 days against plasma glucose in diabetic mice. Also on record: dose 75 mg/kg.
Experiment [3] deals with Mus musculus. Nature of the experiment: Activity of perorally administered compound at a dose of 20 mg/kg for 4 days against plasma insulin in obese mice. Also on record: dose 20 mg/kg.
Experiment [4] deals with Mus musculus. Nature of the experiment: Activity of perorally administered compound at a dose of 20 mg/kg for 10 days against plasma insulin in diabetic mice. Further details: dose 20 mg/kg.
For experiment [5], the system named is Mus musculus. Kind of experiment: Activity of perorally administered compound at a dose of 20 mg/kg for 10 days against plasma glucose in diabetic mice. Also on record: dose 20 mg/kg.
The subject of experiment [6] is Mus musculus. Nature of the experiment: Activity of perorally administered compound at a dose of 20 mg/kg for 4 days against plasma glucose in obese mice. Also on record: dose 20 mg/kg.
Experiment [7] concerns Mus musculus. Kind of experiment: Activity of perorally administered compound at a dose of 75 mg/kg for 4 days against plasma insulin in diabetic mice. Further details: dose 75 mg/kg.

Regarding `O=C(Nc1ccc(Cc2nn[nH]n2)cc1)C(F)(F)C(F)(F)C(F)(F)C(F)(F)C(F)(F)C(F)(F)C(F)(F)F`, the Plasma glucose is 87 mg/dL in the experiment on Mus musculus [1]; 163 mg/dL in the experiment on Mus musculus [2]; 256 mg/dL in the experiment with Mus musculus [5]; 111 mg/dL and 119 mg/dL with Mus musculus [6]. The Plasma insulin amounted to 140 µU/mL with Mus musculus [3], 14 µU/mL with Mus musculus [4] and 32 µU/mL in the experiment with Mus musculus [7].

For `CN(C(=O)C(F)(F)C(F)(F)C(F)(F)C(F)(F)C(F)(F)C(F)(F)C(F)(F)F)c1ccc(Cc2nnnn2C)cc1`, in the experiment on Mus musculus [3], the Plasma insulin worked out at 204 µU/mL. Also, the Plasma glucose in the experiment on Mus musculus [6] amounted to 119 mg/dL.

With `O=C(Nc1ccc(Cc2nnn[nH]2)cc1)C(F)(F)C(F)(F)C(F)(F)C(F)(F)C(F)(F)C(F)(F)C(F)(F)C(F)(F)F`, the results for the Plasma glucose with Mus musculus [1] and in the experiment with Mus musculus [6] were 106 mg/dL and 128 mg/dL, respectively.

`O=C(Nc1ccc(Cc2nnn(Cc3ccccc3)n2)cc1)C(F)(F)C(F)(F)C(F)(F)C(F)(F)C(F)(F)C(F)(F)C(F)(F)F` displayed a Plasma insulin with Mus musculus [3] of 204 µU/mL. In the experiment on Mus musculus [6], this compound gave a Plasma glucose of 119 mg/dL.

With `O=C(Nc1ccc(Cc2nnn[nH]2)cc1)C(F)(F)C(F)(F)C(F)(F)C(F)(F)F`, the Plasma glucose with Mus musculus [1] was determined as 170 mg/dL; in the experiment with Mus musculus [6] it was 207 mg/dL.

As to `CN(C(=O)C(F)(F)C(F)(F)C(F)(F)C(F)(F)C(F)(F)C(F)(F)C(F)(F)F)c1ccc(Cc2nnn(C)n2)cc1`, the Plasma insulin in the experiment with Mus musculus [3] is 205 µU/mL. In the experiment on Mus musculus [6], this compound registered a Plasma glucose of 128 mg/dL.

Consider `O=C(Nc1ccc(Cc2nn[nH]n2)cc1)C(F)(F)C(F)(F)C(F)(F)F`, for which the Plasma glucose in the experiment with Mus musculus [1] was 100 mg/dL; in the experiment on Mus musculus [5] it was 307 mg/dL; in the experiment with Mus musculus [6], 213 mg/dL. The Plasma insulin in the experiment on Mus musculus [4] was found to be 19 µU/mL.

For `O=C(Nc1ccc(Cc2nnn[nH]2)cc1)C(F)(F)C(F)(F)C(F)(F)C(F)(F)C(F)(F)C(F)(F)F`, the values for the Plasma glucose in the experiment on Mus musculus [1] and in the experiment with Mus musculus [6] were 162 mg/dL and 231 mg/dL, respectively.

As for `O=C(Nc1ccc(Cc2nnn[nH]2)cc1)C(F)(F)C(F)(F)C(F)(F)C(F)(F)C(F)(F)C(F)(F)C(F)(F)C(F)F`, the Plasma glucose in the experiment with Mus musculus [1] worked out at 93 mg/dL; with Mus musculus [2], 124 mg/dL; in the experiment with Mus musculus [6], 108 mg/dL. In addition, in the experiment with Mus musculus [7], the Plasma insulin worked out at 34 µU/mL.

In the case of `O=C(Nc1ccc(Cc2nnn[nH]2)cc1)C(F)(F)C(F)(F)F`, the Plasma glucose was 120 mg/dL in the experiment on Mus musculus [1] and 198 mg/dL in the experiment on Mus musculus [6].

Take `O=C(Nc1ccc(Cc2nnn[nH]2)cc1)C(F)(F)C(F)(F)C(F)(F)C(F)(F)C(F)(F)C(F)(F)C(F)(F)C(F)(F)C(F)(F)F`: the Plasma glucose amounted to 144 mg/dL in the experiment on Mus musculus [1] and 133 mg/dL in the experiment on Mus musculus [6].

As for `O=C(Nc1ccc(Cc2nnn[nH]2)cc1)C(F)(F)F`, the Plasma glucose was 138 mg/dL in the experiment with Mus musculus [1] and 273 mg/dL in the experiment on Mus musculus [6].

Regarding `O=C(Nc1ccc(Cc2nnnn2Cc2ccccc2)cc1)C(F)(F)C(F)(F)C(F)(F)C(F)(F)C(F)(F)C(F)(F)C(F)(F)F`, in the experiment with Mus musculus [3], the Plasma insulin is 249 µU/mL. This compound also came in with a Plasma glucose in the experiment with Mus musculus [6] of 152 mg/dL.

For the compound `CC1(COc2ccc(CC3SC(=O)NC3=O)cc2)CCCCC1` (stereo not drawn), the Plasma glucose is 107 mg/dL with Mus musculus [1], 348 mg/dL in the experiment on Mus musculus [2], 320 mg/dL with Mus musculus [5] and 191 mg/dL in the experiment on Mus musculus [6]. The values for the Plasma insulin in the experiment on Mus musculus [4] and in the experiment on Mus musculus [7] were 20 µU/mL and 25 µU/mL, respectively.

Take `O=C(Nc1ccc(Cc2nnn[nH]2)cc1)C(F)(F)C(F)(F)C(F)(F)C(F)(F)C(F)(F)C(F)(F)C(F)(F)C(F)(F)C(F)(F)C(F)F`: the Plasma glucose is 118 mg/dL in the experiment with Mus musculus [1] and 123 mg/dL in the experiment with Mus musculus [6].
